A short description of data set [1]: Balb/c mouse pharmacokinetics after oral (PO) dosing. Type of data set: in vivo. Particulars: male, plasma. The protocol: Compounds were formulated in 5% DMSO, 40% PEG-400, 55% Milli-Q water at a concentration of 0.5 mg/mL for 5 mg/kg and 3 mg/mL for 30 mg/kg PO dosing. […] Blood was sampled at various timepoints and plasma isolated. 10 μL of plasma with 5 μL of blank Balb/c mouse plasma were added to 200 μL of acetonitrile containing IS mixture. The samples were vortexed for 30 s. After centrifugation at 4 degree Celsius, 3900 rpm for 15 min, the supernatant was diluted 3 times with water. 20 μL of diluted supernatant was injected into the LC/MS/MS system for quantitative analysis and concentration of analyte determined by comparison with matrix matched standard curve. WinNonlin (Phoenix™, version 8.3) or other similar software was used for pharmacokinetic calculations.

Data set [2] deals with T1, BRD4 BD1 (Homo sapiens, UniProt O60885).
T1 construct: HEK293 cells were transfected using NanoLuc-BRD4-BD1 or NanoLuc-BRD4-BD2 fusion vectors; host or cells: HEK293
Nature of the data set: NanoBRET bromodomain assay, BRD4 BD1. The class given is cell-based. Particulars: HEK293 cells transfected with NanoLuc-BRD4-BD1. An outline of the steps:
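Transfected HEK293 cells expressing NanoLuc-BRD4-BD1 were incubated with 1x tracer and serially diluted compound for 2 h at 37 °C, then given Nano-Glo substrate plus extracellular NanoLuc inhibitor. Donor 450 nm and acceptor 610 nm emissions were converted to background-corrected mBU, and IC50 was derived by nonlinear regression.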
(In BRET a luciferase serves as donor, and the signal depends on an acceptor being close.)

In data set [3] the target is T2, BRD4 BD2 (Homo sapiens, UniProt O60885).
T2 construct: HEK293 cells were transfected using NanoLuc-BRD4-BD1 or NanoLuc-BRD4-BD2 fusion vectors; host or cells: HEK293
Nature of the data set: NanoBRET bromodomain assay, BRD4 BD2. The class given is cell-based. The conditions noted are these: for Fold selectivity BRD4 BD1/BD2: IC50 BD1/IC50 BD2; for IC50: NanoBRET, HEK293 cells transfected with NanoLuc-BRD4-BD2. An outline of the steps: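 HEK293 cells transfected with NanoLuc-BRD4-BD2 fusion for 20-24 h, then treated with compound plus 1x tracer for 2 h at 37° C. Donor 450 nm / acceptor 610 nm emissions converted to background-corrected mBU; IC50 by nonlinear regression; selectivity as IC50 BD1/IC50 BD2.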

Data set [4] in a line: Intrinsic clearance in rat liver microsomes. The class given is in vitro ADME. Particulars: pH 7.4, NADPH, read-out: Rat Microsomal Stability T½. On the procedure:
A 50 mM stock solution (in DMSO) was prepared for the compound. From the stock solution, a working solution of 0.5 mM was prepared by diluting the compound in DMSO. This concentration of working solution was prepared considering a final concentration of 1 uM with 0.1% DMSO. The compound (1 uL of working solution) was spiked in PBS with pH 7.4 (22 uL) at a concentration of 1 uM. Subsequently, 110 uL of 10 mM NADPH was added (as a co-factor). The sample was incubated at 37° C. for 15 min. Following this, pre-warmed rat liver microsomes (27.5 uL; final protein conc. 0.5 mg/mL) were added. The samples were then incubated at 37° C. Aliquots of samples were withdrawn at 0, 5, 15, 30, 45 and 60 min. The reaction was stopped by using chilled acetonitrile containing internal standard. The samples were centrifuged and the supernatants analysed by LC-MS/MS. The percent compound remaining at each time point was calculated with respect to that of the 0 min sample. The data were then analysed to calculate half-life. Note that control samples were run without NADPH and blank samples were prepared using DMSO without the test Compound.
For orientation: Microsomes from liver hold many membrane-bound enzymes, among them those of drug oxidation.

Some results are limits rather than exact numbers.

In general, Cmax refers to the maximum level reached in the sampled fluid or tissue. In general, bioavailability refers to the share of a dose that reaches the circulation, judged against a reference dose that is usually intravenous. Read a high bioavailability as much systemic uptake. What is called IC50 is the concentration needed to halve the response being measured. Lower therefore signals inhibition by little substance. Consider `Cc1cccc(C)c1Oc1cn(C)c(=O)cc1-c1cn(C)c(=O)c2[nH]c(-c3cn(C4COC4)nc3C)cc12` [Example 64, 4-(5-(2,6-dimethylphenoxy)-1-methyl-2-oxo-1,2-dihydropyridin-4-yl)-6-methyl-2-(3-methyl-1-(oxetan-3-yl)-1H-pyrazol-4-yl)-1,6-dihydro-7H-pyrrolo[2,3-c]pyridin-7-one], for which, in data set [1] (30 mg/kg, Individual), the Cmax was 1010 ng/mL and the bioavailability was 12.5%. This molecule registered an IC50 in data set [2] of 500 to 1000 nM. Besides, in data set [3], the “Fold selectivity BRD4 BD1/BD2” value is “xx (Fold >50 and ≤200)”; the half-maximal inhibitory concentration (IC50) is no more than 50 nM.

Regarding `Cc1cccc(C)c1Oc1cn(C)c(=O)cc1-c1cn(C)c(=O)c2[nH]c(-c3ccc(F)cc3F)cc12` [Example 47, 2-(2,4-difluorophenyl)-4-(5-(2,6-dimethylphenoxy)-1-methyl-2-oxo-1,2-dihydropyridin-4-yl)-6-methyl-1,6-dihydro-7H-pyrrolo[2,3-c] pyridin-7-one], in data set [1] (5 mg/kg, Casette), the Cmax was determined as 718 ng/mL and the bioavailability was 100%. This molecule registered an IC50 in data set [2] greater than 1000 nM. In data set [3], the “Fold selectivity BRD4 BD1/BD2” value was “xxx (Fold >200)” and the IC50 was no more than 50 nM.

In data set [1] (5 mg/kg, Casette), `Cc1cccc(C)c1Oc1cn(C)c(=O)cc1-c1cn(C)c(=O)c2[nH]c(-c3cccc(F)c3F)cc12` [Example 50, 4-[2-(2,3-difluorophenyl)-6-methyl-7-oxo-1H-pyrrolo[2,3-c]pyridin-4-yl]-5-(2,6-dimethylphenoxy)-1-methylpyridin-2-one] showed a Cmax of 293 ng/mL and a bioavailability of 73%. Further, in data set [2], the IC50 is greater than 1000 nM. Moreover, in data set [3], the “Fold selectivity BRD4 BD1/BD2” value is “xxx (Fold >200)” and the IC50 is no more than 50 nM.

In data set [1] (5 mg/kg, Casette), `Cc1cccc(C)c1Oc1cn(C)c(=O)cc1-c1cn(C)c(=O)c2[nH]c(-c3cn(C(C)C)nc3C#N)cc12` [Example 49, 4-{4-[5-(2,6-dimethylphenoxy)-1-methyl-2-oxopyridin-4-yl]-6-methyl-7-oxo-1H-pyrrolo[2,3-c]pyridin-2-yl}-1-isopropylpyrazole-3-carbonitrile] yielded a Cmax of 19.3 ng/mL and a bioavailability of 7.81%. Moreover, the IC50 in data set [2] lay within 50 to 500 nM. Besides, in data set [3], the “Fold selectivity BRD4 BD1/BD2” value is “xx (Fold >50 and ≤200)”; the IC50 is no more than 50 nM.

In data set [1] (30 mg/kg, Individual), `Cc1cc(-c2cc3c(-c4cc(=O)n(C5CC5)cc4Oc4c(C)cccc4C)cn(C)c(=O)c3[nH]2)cc(C)n1` [Example 59, 1-cyclopropyl-5-(2,6-dimethylphenoxy)-4-[2-(2,6-dimethylpyridin-4-yl)-6-methyl-7-oxo-1H-pyrrolo[2,3-c]pyridin-4-yl]pyridin-2-one] yielded a Cmax of 5460 ng/mL and a bioavailability of 100%. In data set [2], this molecule gave an IC50 greater than 1000 nM. In addition, in data set [3], the “Fold selectivity BRD4 BD1/BD2” value is “xxx (Fold >200)” and the IC50 is no more than 50 nM.

In data set [1] (5 mg/kg, Casette), `Cc1cc(-c2cc3c(-c4cc(=O)n(C)cc4-c4ccccc4)cn(C)c(=O)c3[nH]2)cc(C)n1` [Example 62, 4-[2-(2,6-dimethylpyridin-4-yl)-6-methyl-7-oxo-1H-pyrrolo[2,3-c]pyridin-4-yl]-1-methyl-5-phenylpyridin-2-one] displayed a peak concentration (Cmax) of 1290 ng/mL and a bioavailability of 88.7%. Further, in data set [2], the half-inhibitory concentration (IC50) lay within 50 to 500 nM. Also, in data set [3], the “Fold selectivity BRD4 BD1/BD2” value was “xxx (Fold >200)” and the IC50 is no more than 50 nM.

Regarding `Cc1cccc(C)c1Oc1cn(C)c(=O)cc1-c1cn(C)c(=O)c2[nH]c(-c3ccc(C(F)(F)F)cc3)cc12` [Example 28, 4-(5-(2,6-dimethylphenoxy)-1-methyl-2-oxo-1,2-dihydropyridin-4-yl)-6-methyl-2-(4-(trifluoromethyl)phenyl)-1,6-dihydro-7H-pyrrolo[2,3-c] pyridin-7-one], the half-life at 1 uM in data set [4] is greater than 1 h. Moreover, the IC50 in data set [2] is greater than 1000 nM. For the same molecule, in data set [3], the “Fold selectivity BRD4 BD1/BD2” value is “xx (Fold >50 and ≤200)”; the IC50 was 50 to 200 nM.

In the case of `Cc1cccc(C)c1Oc1cn(C)c(=O)cc1-c1cn(C)c(=O)c2[nH]c(-c3ccc(S(C)(=O)=O)cc3)cc12` [Example 26, 4-(5-(2,6-dimethylphenoxy)-1-methyl-2-oxo-1,2-dihydropyridin-4-yl)-6-methyl-2-(4-(methylsulfonyl)phenyl)-1,6-dihydro-7H-pyrrolo[2,3-c] pyridin-7-one], in data set [4], the half-life at 1 uM is greater than 1 h. Moreover, in data set [2], the IC50 was greater than 1000 nM. Moreover, in data set [3], the “Fold selectivity BRD4 BD1/BD2” value is “xx (Fold >50 and ≤200)”; the IC50 is no more than 50 nM.

Consider `Cc1cccc(C)c1Oc1cn(C)c(=O)cc1-c1cn(C)c(=O)c2[nH]c(-c3ccc(C(=O)O)cc3)cc12` [Example 35, 4-(4-(5-(2,6-dimethylphenoxy)-1-methyl-2-oxo-1,2-dihydropyridin-4-yl)-6-methyl-7-oxo-6,7-dihydro-1H-pyrrolo[2,3-c]pyridin-2-yl) benzoic acid], for which the half-life at 1 uM in data set [4] was greater than 1 h. Moreover, the half-maximal inhibitory concentration (IC50) in data set [2] was greater than 1000 nM. Moreover, in data set [3], the “Fold selectivity BRD4 BD1/BD2” value is “— (Fold ≥0 and ≤2)”; the IC50 is greater than 1000 nM.

In data set [1] (5 mg/kg, Casette), `Cc1cc(-c2cc3c(-c4cc(=O)n(C)cc4-c4ccccc4)cn(C)c(=O)c3[nH]2)n(C)n1` [Example 60, 2-(1,3-dimethyl-1H-pyrazol-5-yl)-6-methyl-4-(1-methyl-2-oxo-5-phenyl-1,2-dihydropyridin-4-yl)-1,6-dihydro-7H-pyrrolo[2,3-c] pyridin-7-one] registered a Cmax of 631 ng/mL and a bioavailability of 59.9%. Besides, the IC50 in data set [2] was greater than 1000 nM. In data set [3], the “Fold selectivity BRD4 BD1/BD2” value is recorded as “xxx (Fold >200)” and the IC50 was no more than 50 nM.

In data set [1] (5 mg/kg, Casette), `Cc1cccc(C)c1Oc1cn(C)c(=O)cc1-c1cn(C)c(=O)c2[nH]c(-c3ccc(=O)n(C)c3)cc12` [Example 51, 5-(2,6-dimethylphenoxy)-1-methyl-4-[6-methyl-2-(1-methyl-6-oxopyridin-3-yl)-7-oxo-1H-pyrrolo[2,3-c]pyridin-4-yl]pyridin-2-one] displayed a Cmax of 24.4 ng/mL and a bioavailability of 6.83%. The molecule also registered an IC50 in data set [2] greater than 1000 nM. Also, in data set [3], the “Fold selectivity BRD4 BD1/BD2” value is “xx (Fold >50 and ≤200)”; the IC50 was 50 to 200 nM.

`CC(C)n1cc(-c2cc3c(-c4cc(=O)n(C)cc4-c4ccccc4)cn(C)c(=O)c3[nH]2)cn1` [Example 61, 4-[2-(1-isopropylpyrazol-4-yl)-6-methyl-7-oxo-1H-pyrrolo[2,3-c]pyridin-4-yl]-1-methyl-5-phenylpyridin-2-one]: in data set [1] (5 mg/kg, Casette), the Cmax was determined as 622 ng/mL and the bioavailability was 51.2%. Further, the concentration for half-maximal inhibition (IC50) in data set [2] was greater than 1000 nM. For the same molecule, in data set [3], the “Fold selectivity BRD4 BD1/BD2” value is reported as “xxx (Fold >200)” and the IC50 is no more than 50 nM.

In the case of `Cc1cccc(C)c1Oc1cn(C)c(=O)cc1-c1cn(C)c(=O)c2[nH]c(-c3ccccc3)cc12` [Example 8, 4-(5-(2,6-dimethylphenoxy)-1-methyl-2-oxo-1,2-dihydropyridin-4-yl)-6-methyl-2-phenyl-1,6-dihydro-7H-pyrrolo[2,3-c] pyridin-7-one], in data set [4], the half-life at 1 uM was greater than 1 h. Moreover, the figures for the IC50 in data set [2] and in data set [3] were greater than 1000 nM and 50 to 200 nM, respectively. Further, the “Fold selectivity BRD4 BD1/BD2” value in data set [3] is “xx (Fold >50 and ≤200)”.

In data set [1] (5 mg/kg, Casette), `Cn1cc(-c2ccccc2)c(-c2cn(C)c(=O)c3[nH]c(-c4ccccc4)cc23)cc1=O` [Example 63, 1-methyl-4-{6-methyl-7-oxo-2-phenyl-1H-pyrrolo[2,3-c]pyridin-4-yl}-5-phenylpyridin-2-one] showed a Cmax of 1590 ng/mL and a bioavailability of 86.5%. For the same molecule, the IC50 in data set [2] was greater than 1000 nM. In data set [3], the “Fold selectivity BRD4 BD1/BD2” value is recorded as “xxx (Fold >200)” and the IC50 is no more than 50 nM.

For the molecule `Cc1ccc(-c2cc3c(-c4cc(=O)n(C)cc4Oc4c(C)cccc4C)cn(C)c(=O)c3[nH]2)cc1` [Example 23, 4-(5-(2,6-dimethylphenoxy)-1-methyl-2-oxo-1,2-dihydropyridin-4-yl)-6-methyl-2-(p-tolyl)-1,6-dihydro-7H-pyrrolo[2,3-c] pyridin-7-one], the half-life at 1 uM in data set [4] was greater than 1 h. In data set [2], the half-inhibitory concentration (IC50) is greater than 1000 nM. Moreover, in data set [3], the “Fold selectivity BRD4 BD1/BD2” value is “x (Fold >2 and ≤50)”; the half-inhibitory concentration (IC50) fell in the range of 200 to 1000 nM.
